Assay results published in ChEMBL document CHEMBL1201862, “PubChem BioAssay data set” (2004).
Several values for one entry are separate records, joined by “and”; a condition that tells them apart may be missing. Equal entries are not always repeated.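 Where inhibition never reached the appropriate level, the endpoint shown equals the highest concentration tested. Otherwise, values were interpolated linearly from a five-concentration, 48-hour dose response in 96-well plates. Abbreviation: GI50, concentration required for 50% inhibition of growth.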 Activity calls are given as the source filed them. Rule as the data show it: active = GI50 up to about 1.1 µM and inactive = higher.

What was measured:
Experiment in all cases: NCI anticancer screen, dose series, 48 h
DU-145 = system: DU-145
RXF 393 = system: RXF 393
LOX IMVI = system: LOX IMVI
T47D = system: T47D
CCRF-CEM = system: CCRF-CEM
NCI-H226 = system: NCI-H226
NCI/ADR-RES = system: NCI/ADR-RES
HT-29 = system: HT-29
SK-MEL-28 = system: SK-MEL-28
MDA-MB-231 = system: MDA-MB-231
HL-60 = system: HL-60
SF-295 = system: SF-295
TK-10 = system: TK-10
SF-268 = system: SF-268
SW-620 = system: SW-620
UACC-62 = system: UACC-62
RPMI-8226 = system: RPMI-8226
HOP-62 = system: HOP-62
SF-539 = system: SF-539
SK-OV-3 = system: SK-OV-3
MDA-N = system: MDA-N
K562 = system: K562
HOP-92 = system: HOP-92
SNB-19 = system: SNB-19
ACHN = system: ACHN
CAKI-1 = system: CAKI-1
Hs-578T = system: Hs-578T
HCC 2998 = system: HCC 2998
NCI-H460 = system: NCI-H460
SNB-75 = system: SNB-75
HCT-116 = system: HCT-116
MOLT-4 = system: MOLT-4
KM12 = system: KM12
U-251 = system: U-251
SK-MEL-5 = system: SK-MEL-5
HCT-15 = system: HCT-15
786-0 = system: 786-0
UO-31 = system: UO-31
OVCAR-8 = system: OVCAR-8
OVCAR-3 = system: OVCAR-3
SN12C = system: SN12C
NCI-H522 = system: NCI-H522
Malme-3M = system: Malme-3M
MCF7 = system: MCF7
SK-MEL-2 = system: SK-MEL-2
EKVX = system: EKVX
SR = system: SR
COLO 205 = system: COLO 205
PC-3 = system: PC-3
M14 = system: M14
IGROV-1 = system: IGROV-1
A498 = system: A498
A549 = system: A549
UACC-257 = system: UACC-257
NCI-H23 = system: NCI-H23
OVCAR-4 = system: OVCAR-4
OVCAR-5 = system: OVCAR-5
MDA-MB-435 = system: MDA-MB-435

COc1cc(C(SCc2ccccc2)SCc2ccccc2)ccc1O was tested, and the GI50 (DU-145) was > 10 µM (inactive), the GI50 (RXF 393) was 9.4 µM (inactive) and the GI50 (LOX IMVI) was > 10 µM (inactive). For the same compound, the GI50 (T47D) was 8.97 µM (inactive), the GI50 (CCRF-CEM) was > 10 µM (inactive) and the GI50 (NCI-H226) was > 10 µM (inactive). For the same compound, the GI50 (NCI/ADR-RES) was > 10 µM (inactive), the GI50 (HT-29) was > 10 µM (inactive) and the GI50 (SK-MEL-28) was > 10 µM (inactive). For the same compound, the GI50 (MDA-MB-231) was > 10 µM (inactive), the GI50 (HL-60) was > 10 µM (inactive) and the GI50 (SF-295) was > 10 µM (inactive). For the same compound, the GI50 (TK-10) was > 10 µM (inactive), the GI50 (SF-268) was > 10 µM (inactive) and the GI50 (SW-620) was > 10 µM (inactive). The GI50 (UACC-62) was > 10 µM (inactive), the GI50 (RPMI-8226) was > 10 µM (inactive) and the GI50 (HOP-62) was > 10 µM (inactive). The GI50 (SF-539) was > 10 µM (inactive), the GI50 (SK-OV-3) was 4.22 µM (inactive) and the GI50 (MDA-N) was > 10 µM (inactive). The GI50 (K562) was > 10 µM (inactive), the GI50 (HOP-92) was > 10 µM (inactive) and the GI50 (SNB-19) was > 10 µM (inactive). For the same compound, the GI50 (ACHN) was > 10 µM (inactive), the GI50 (CAKI-1) was > 10 µM (inactive) and the GI50 (Hs-578T) was 6.12 µM (inactive). The GI50 (HCC 2998) was > 10 µM (inactive), the GI50 (NCI-H460) was > 10 µM (inactive) and the GI50 (SNB-75) was > 10 µM (inactive). For the same compound, the GI50 (HCT-116) was 7.41 µM (inactive), the GI50 (MOLT-4) was 9.33 µM (inactive) and the GI50 (KM12) was > 10 µM (inactive). The GI50 (U-251) was > 10 µM (inactive), the GI50 (SK-MEL-5) was > 10 µM (inactive) and the GI50 (HCT-15) was > 10 µM. The GI50 (786-0) was > 10 µM (inactive), the GI50 (UO-31) was 7.06 µM (inactive) and the GI50 (OVCAR-8) was > 10 µM (inactive). For the same compound, the GI50 (OVCAR-3) was > 10 µM (inactive), the GI50 (SN12C) was > 10 µM (inactive) and the GI50 (NCI-H522) was > 10 µM (inactive). For the same compound, the GI50 (Malme-3M) was > 10 µM (inactive), the GI50 (MCF7) was > 10 µM (inactive) and the GI50 (SK-MEL-2) was > 10 µM (inactive). The GI50 (EKVX) was > 10 µM (inactive), the GI50 (SR) was > 10 µM (inactive) and the GI50 (COLO 205) was > 10 µM (inactive). For the same compound, the GI50 (PC-3) was > 10 µM (inactive), the GI50 (M14) was > 10 µM (inactive) and the GI50 (IGROV-1) was > 10 µM (inactive). The GI50 (A498) was > 10 µM (inactive).

In the case of Clc1ccc(/C=N/Nc2nnc3c4ccccc4c4ncccc4c3n2)cc1, the GI50 (DU-145) is reported as > 10 µM (inactive), the GI50 (RXF 393) is reported as > 10 µM (inactive) and the GI50 (A549) is reported as > 10 µM (inactive). For the same compound, the GI50 (T47D) was > 10 µM (inactive), the GI50 (HT-29) was > 10 µM (inactive) and the GI50 (SK-MEL-28) was > 10 µM (inactive). The GI50 (MDA-MB-231) was > 10 µM (inactive), the GI50 (HL-60) was > 10 µM (inactive) and the GI50 (SF-295) was > 10 µM (inactive). For the same compound, the GI50 (TK-10) was > 10 µM (inactive), the GI50 (SF-268) was > 10 µM (inactive) and the GI50 (SW-620) was > 10 µM (inactive). For the same compound, the GI50 (UACC-62) was > 10 µM (inactive), the GI50 (RPMI-8226) was > 10 µM (inactive) and the GI50 (UACC-257) was > 10 µM (inactive). The GI50 (HOP-62) was > 10 µM (inactive), the GI50 (NCI-H23) was > 10 µM (inactive) and the GI50 (SK-OV-3) was > 10 µM (inactive). The GI50 (MDA-N) was > 10 µM (inactive), the GI50 (K562) was > 10 µM (inactive) and the GI50 (CAKI-1) was > 10 µM (inactive). The GI50 (HCC 2998) was > 10 µM (inactive), the GI50 (SNB-75) was > 10 µM (inactive) and the GI50 (MOLT-4) was > 10 µM (inactive). For the same compound, the GI50 (KM12) was > 10 µM (inactive), the GI50 (SK-MEL-5) was > 10 µM (inactive) and the GI50 (HCT-15) was > 10 µM. For the same compound, the GI50 (786-0) was > 10 µM (inactive), the GI50 (OVCAR-8) was > 10 µM (inactive) and the GI50 (SN12C) was > 10 µM (inactive). The GI50 (Malme-3M) was > 10 µM (inactive), the GI50 (MCF7) was > 10 µM (inactive) and the GI50 (EKVX) was > 10 µM (inactive). The GI50 (SR) was > 10 µM (inactive), the GI50 (COLO 205) was > 10 µM (inactive) and the GI50 (PC-3) was > 10 µM (inactive). For the same compound, the GI50 (M14) was > 10 µM (inactive) and the GI50 (IGROV-1) was > 10 µM (inactive).

For CCN(CC)CCN1C(=O)C(=O)N(c2cccc3ccccc23)C1=O, the GI50 (DU-145) was > 10 µM (inactive), the GI50 (RXF 393) was > 10 µM (inactive) and the GI50 (A549) was > 10 µM (inactive). For the same compound, the GI50 (LOX IMVI) was > 10 µM (inactive), the GI50 (T47D) was > 10 µM (inactive) and the GI50 (CCRF-CEM) was > 10 µM (inactive). For the same compound, the GI50 (NCI-H226) was > 10 µM (inactive), the GI50 (NCI/ADR-RES) was > 10 µM (inactive) and the GI50 (HT-29) was > 10 µM (inactive). For the same compound, the GI50 (SK-MEL-28) was > 10 µM (inactive), the GI50 (MDA-MB-231) was > 10 µM (inactive) and the GI50 (HL-60) was > 10 µM (inactive). The GI50 (OVCAR-4) was > 10 µM (inactive), the GI50 (SF-295) was > 10 µM (inactive) and the GI50 (TK-10) was > 10 µM (inactive). The GI50 (SF-268) was > 10 µM (inactive), the GI50 (SW-620) was > 10 µM (inactive) and the GI50 (OVCAR-5) was > 10 µM (inactive). For the same compound, the GI50 (UACC-62) was > 10 µM (inactive), the GI50 (RPMI-8226) was > 10 µM (inactive) and the GI50 (HOP-62) was > 10 µM (inactive). The GI50 (NCI-H23) was > 10 µM (inactive), the GI50 (SF-539) was > 10 µM (inactive) and the GI50 (SK-OV-3) was > 10 µM (inactive). For the same compound, the GI50 (MDA-N) was > 10 µM (inactive), the GI50 (K562) was > 10 µM (inactive) and the GI50 (SNB-19) was > 10 µM (inactive). The GI50 (ACHN) was > 10 µM (inactive), the GI50 (CAKI-1) was > 10 µM (inactive) and the GI50 (Hs-578T) was 8.65 µM (inactive). The GI50 (HCC 2998) was > 10 µM (inactive), the GI50 (NCI-H460) was > 10 µM (inactive) and the GI50 (SNB-75) was > 10 µM (inactive). For the same compound, the GI50 (HCT-116) was > 10 µM (inactive), the GI50 (MOLT-4) was > 10 µM (inactive) and the GI50 (KM12) was > 10 µM (inactive). For the same compound, the GI50 (U-251) was > 10 µM (inactive), the GI50 (SK-MEL-5) was > 10 µM (inactive) and the GI50 (HCT-15) was > 10 µM. For the same compound, the GI50 (UO-31) was > 10 µM (inactive), the GI50 (OVCAR-8) was > 10 µM (inactive) and the GI50 (OVCAR-3) was > 10 µM (inactive). The GI50 (SN12C) was > 10 µM (inactive), the GI50 (NCI-H522) was > 10 µM (inactive) and the GI50 (Malme-3M) was > 10 µM (inactive). For the same compound, the GI50 (MCF7) was > 10 µM (inactive), the GI50 (SK-MEL-2) was > 10 µM (inactive) and the GI50 (EKVX) was > 10 µM (inactive). For the same compound, the GI50 (SR) was > 10 µM (inactive), the GI50 (MDA-MB-435) was > 10 µM (inactive) and the GI50 (COLO 205) was > 10 µM (inactive). The GI50 (PC-3) was > 10 µM (inactive), the GI50 (M14) was > 10 µM (inactive) and the GI50 (IGROV-1) was > 10 µM (inactive). The GI50 (A498) was > 10 µM (inactive).

CCCCCCCCCCCCCCCCP(=O)(O)OP(=O)(O)OCC1OC(n2ccc(N)nc2=O)C(O)C1O (stereo not drawn) was tested, and the GI50 (DU-145) was 25.8 µM (inactive), the GI50 (T47D) was > 90.2 µM (inactive) and the GI50 (SK-MEL-28) was 32.4 µM (inactive) and 47.5 µM (inactive). The GI50 (TK-10) was 29.4 µM (inactive) and 41 µM (inactive), the GI50 (OVCAR-5) was 18.5 µM (inactive) and 21.7 µM (inactive) and the GI50 (SF-539) was 14.3 µM (inactive) and 22.9 µM (inactive). For the same compound, the GI50 (SNB-75) was 16.9 µM (inactive) and 32.9 µM (inactive), the GI50 (KM12) was 31.8 µM (inactive) and 38.4 µM (inactive) and the GI50 (OVCAR-3) was 60 µM (inactive). The GI50 (SK-MEL-2) was > 100 µM (inactive) and 76.7 µM (inactive), the GI50 (EKVX) was > 100 µM (inactive) and the GI50 (SR) was 0.323 µM (active). The GI50 (A498) was 8.91 µM (inactive).
